Assay results taken from the supplement of paper PMC10307832.

Assays:
Test in all cases: relative viability (nuclei count vs DMSO), 5 days (fraction); higher = more cells survive
[1] = test system: NCI-H2009
Procedure, shortened: (§1)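 Five library-drug doses in √10 steps were combined with a fixed anchor-drug dose, or a single drug was given alone, by pin tool to lung cancer cell lines in 1536-well plates the day after seeding. Nuclei were stained and counted after 5 days. Relative viability is the nuclei count in treated wells over that in vehicle wells, taken as the median of duplicate plates.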

[2] = test system: HOP-62
Procedure, shortened: as §1

[3] = test system: NCI-H1395
Procedure, shortened: as §1

[4] = test system: NCI-H1975
Procedure, shortened: as §1

[5] = test system: NCI-H1437
Procedure, shortened: as §1

[6] = test system: EMC-BAC-2
Procedure, shortened: as §1

[7] = test system: CAL-12T
Procedure, shortened: as §1

[8] = test system: NCI-H522
Procedure, shortened: as §1

[9] = test system: NCI-H1915
Procedure, shortened: as §1

[10] = test system: NCI-H2228
Procedure, shortened: as §1

[11] = test system: NCI-H460
Procedure, shortened: as §1

[12] = test system: COR-L 105
Procedure, shortened: as §1

[13] = test system: SK-LU-1
Procedure, shortened: as §1

[14] = test system: NCI-H23
Procedure, shortened: as §1

[15] = test system: HCC-827
Procedure, shortened: as §1

[16] = test system: NCI-H1792
Procedure, shortened: as §1

[17] = test system: NCI-H1755
Procedure, shortened: as §1

[18] = test system: HARA
Procedure, shortened: as §1

[19] = test system: A-427
Procedure, shortened: as §1

[20] = test system: LCLC-103H
Procedure, shortened: as §1

[21] = test system: SW 1573
Procedure, shortened: as §1

[22] = test system: HCC-366
Procedure, shortened: as §1

[23] = test system: NCI-H1355
Procedure, shortened: as §1

[24] = test system: NCI-H727
Procedure, shortened: as §1

## CC(C)Oc1cc(Nc2nc(N[C@@H](C)c3ccc(F)cn3)ncc2Cl)n[nH]1 [AZ23] + COc1cccc2cc(-c3nc([C@H]4CC[C@H](C(=O)O)CC4)n4ncnc(N)c34)[nH]c12 [OSI-027] (partner 0.5 µM)
[1]; first compound 0.01 µM
  relative viability: 0.651
[1]; first compound 0.03162 µM
  relative viability: 0.706
[1]; first compound 0.3162 µM
  relative viability: 0.765
[2]; first compound 0.01 µM
  relative viability: 0.853
[2]; first compound 0.03162 µM
  relative viability: 0.924
[2]; first compound 0.3162 µM
  relative viability: 0.973
[3]; first compound 0.03162 µM
  relative viability: 0.708
[3]; first compound 0.3162 µM
  relative viability: 0.655
[4]; first compound 0.01 µM
  relative viability: 0.874
[4]; first compound 0.03162 µM
  relative viability: 0.812
[4]; first compound 0.3162 µM
  relative viability: 0.727
[5]; first compound 0.01 µM
  relative viability: 0.878
[5]; first compound 0.03162 µM
  relative viability: 1.01
[5]; first compound 0.3162 µM
  relative viability: 1.05
[6]; first compound 0.01 µM
  relative viability: 0.373
[6]; first compound 0.03162 µM
  relative viability: 0.42
[6]; first compound 0.3162 µM
  relative viability: 0.365
[7]; first compound 0.03162 µM
  relative viability: 0.593
[7]; first compound 0.3162 µM
  relative viability: 0.778
[8]; first compound 0.01 µM
  relative viability: 0.639
[8]; first compound 0.03162 µM
  relative viability: 0.711
[8]; first compound 0.3162 µM
  relative viability: 0.563
[9]; first compound 0.01 µM
  relative viability: 0.664
[9]; first compound 0.03162 µM
  relative viability: 0.635
[9]; first compound 0.3162 µM
  relative viability: 0.65
[10]; first compound 0.01 µM
  relative viability: 0.785
[10]; first compound 0.03162 µM
  relative viability: 0.776
[10]; first compound 0.3162 µM
  relative viability: 0.671
[11]; first compound 0.01 µM
  relative viability: 0.382
[11]; first compound 0.03162 µM
  relative viability: 0.657
[11]; first compound 0.3162 µM
  relative viability: 0.885
[12]; first compound 0.01 µM
  relative viability: 0.657
[12]; first compound 0.03162 µM
  relative viability: 0.849
[12]; first compound 0.3162 µM
  relative viability: 0.809
[13]; first compound 0.03162 µM
  relative viability: 0.403
[13]; first compound 0.3162 µM
  relative viability: 0.379
[14]; first compound 0.03162 µM
  relative viability: 0.58
[14]; first compound 0.3162 µM
  relative viability: 0.599
[15]; first compound 0.01 µM
  relative viability: 0.78
[15]; first compound 0.03162 µM
  relative viability: 0.793
[15]; first compound 0.3162 µM
  relative viability: 0.882
[16]; first compound 0.01 µM
  relative viability: 0.752
[16]; first compound 0.03162 µM
  relative viability: 0.782
[16]; first compound 0.3162 µM
  relative viability: 0.841
[17]; first compound 0.01 µM
  relative viability: 0.639
[17]; first compound 0.03162 µM
  relative viability: 0.809
[17]; first compound 0.3162 µM
  relative viability: 0.771
[18]; first compound 0.03162 µM
  relative viability: 0.686
[18]; first compound 0.3162 µM
  relative viability: 0.415
[19]; first compound 0.01 µM
  relative viability: 0.37
[19]; first compound 0.03162 µM
  relative viability: 0.448
[19]; first compound 0.3162 µM
  relative viability: 0.34
[20]; first compound 0.01 µM
  relative viability: 0.401
[20]; first compound 0.03162 µM
  relative viability: 0.505
[20]; first compound 0.3162 µM
  relative viability: 0.535
[21]; first compound 0.01 µM
  relative viability: 0.925
[21]; first compound 0.03162 µM
  relative viability: 0.7
[21]; first compound 0.3162 µM
  relative viability: 0.649
[22]; first compound 0.01 µM
  relative viability: 1.06
[22]; first compound 0.03162 µM
  relative viability: 0.872
[22]; first compound 0.3162 µM
  relative viability: 1.05
[23]; first compound 0.01 µM
  relative viability: 0.401
[23]; first compound 0.03162 µM
  relative viability: 0.421
[23]; first compound 0.3162 µM
  relative viability: 0.361
[24]; first compound 0.01 µM
  relative viability: 0.496
[24]; first compound 0.03162 µM
  relative viability: 0.558
[24]; first compound 0.3162 µM
  relative viability: 0.605
